ChEMBL document CHEMBL4699602, “Stapled and Xenopus Glucagon-Like Peptide 1 (GLP-1)-Based Dual GLP-1/Gastrin Receptor Agonists with Improved Metabolic Benefits in Rodent Models of Obesity and Diabetes” (J Med Chem, 2020)
Calls of active or inactive are those of the source. No cut-off for these calls is given here. Where a SMILES comes first, the peptide text is derived from it. [ ]: non-standard residue; d: D form. Aib = CC(C)(N)C(=O)O

Experiments:
[1] = target: Glucagon-like peptide 1 receptor (Homo sapiens, UniProt P43220); assay: Agonist activity at human GLP-1R expressed in HEK293 cells assessed as stimulation of cAMP accumulation incubated for 20 mins; assay type: functional, cell-based
Glucagon-like peptide 1 receptor, sequence (P43220 whole entry): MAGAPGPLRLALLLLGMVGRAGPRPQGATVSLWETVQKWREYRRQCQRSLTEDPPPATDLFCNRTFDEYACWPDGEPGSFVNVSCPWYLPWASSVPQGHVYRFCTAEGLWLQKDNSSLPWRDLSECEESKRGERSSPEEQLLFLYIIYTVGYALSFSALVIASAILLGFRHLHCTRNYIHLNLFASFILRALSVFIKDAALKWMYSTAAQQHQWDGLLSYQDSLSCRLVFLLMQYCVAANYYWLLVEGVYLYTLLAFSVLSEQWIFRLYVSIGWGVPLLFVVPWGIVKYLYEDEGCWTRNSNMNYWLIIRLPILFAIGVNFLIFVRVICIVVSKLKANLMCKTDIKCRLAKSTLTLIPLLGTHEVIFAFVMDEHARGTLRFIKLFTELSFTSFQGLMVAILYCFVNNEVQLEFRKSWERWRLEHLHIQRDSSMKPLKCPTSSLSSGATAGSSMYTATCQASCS

Mus musculus = assay: Hypoglycemic activity in ICR mouse assessed as decrease in blood glucose concentration at 25 nmol/kg, ip dosed 15 mins before test and measured up to 120 mins by OGTT method; assay type: functional, organism-based

Compound | EC50 [1] | Activity (Mus musculus)
CC[C@H](C)[C@H](NC(=O)[C@H](CC(C)C)NC(=O)[C@H](Cc1c[nH]c2ccccc12)NC(=O)[C@H](CCC(=O)O)NC(=O)[C@@H](NC(=O)[C@H](Cc1ccccc1)NC(=O)[C@H](CS)NC(=O)[C@H](CCCCN)NC(=O)[C@H](C)NC(=O)[C@H](C)NC(=O)[C@H](CCC(=O)O)NC(=O)[C@H](CCC(=O)O)NC(=O)[C@H](CCC(=O)O)NC(=O)[C@H](CC(C)C)NC(=O)[C@H](Cc1ccc(O)cc1)NC(=O)[C@H](CCC(=O)O)NC(=O)[C@@H](NC(=O)[C@@H](NC(=O)[C@H](CC(=O)O)NC(=O)[C@H](CC(N)=O)NC(=O)[C@@H](NC(=O)[C@H](Cc1ccc(O)cc1)NC(=O)[C@@H](NC(=O)CNC(=O)[C@H](CCC(=O)O)NC(=O)C(C)(C)NC(=O)[C@@H](N)Cc1c[nH]cn1)[C@@H](C)O)[C@@H](C)O)C(C)C)[C@@H](C)O)[C@@H](C)CC)C(=O)N[C@@H](CS)C(=O)NCC(=O)N[C@@H](CCCCN)C(N)=O (HELM PEPTIDE1{H.[Aib].E.G.T.Y.T.N.D.V.T.E.Y.L.E.E.E.A.A.K.C.F.I.E.W.L.I.C.G.K.[am]}$$$$V2.0) | 0.083 nM | Active
H-HGEGTYTNDVTEYLEEEAAKEFIEWLIKGK-NH2 | 0.048 nM | Active
H-H[Aib]EGTYTNDVTEYLEEEAAKCFIEWLICGKPSSGAPPSKKKKKK-NH2 (cysteines drawn unpaired) | 0.036 nM | Active

Now those with a lower EC50 [1], led by results:

EC50 [1] | Compound | Activity (Mus musculus)
0.028 nM | H-H[Aib]EGTYTNDVTEYCEEEAAKCFIEWLIKGKPSSGAPPSKKKKKK-NH2 (cysteines drawn unpaired) | Active
0.024 nM | H-HGEGTYTNDVTEYLEEEAAKEFIEWLIKGKPSSGAPPSKKKKKK-NH2 | Active
